From ChEMBL document CHEMBL3124810, “Synthesis and biological evaluation of novel benzamide derivatives as potent smoothened antagonists” (Bioorg Med Chem Lett, 2014)
Values belong to the compound of their own block, whether it stands above or below them. Active and inactive are the calls of the source. The calls are words filed in the database; no cut-off is given here.

Key:
Protein smoothened [1] = biological target: T1, Protein smoothened (Homo sapiens, UniProt Q99835); experiment: Antagonist activity at smoothened (unknown origin) expressed in mouse Shh Light2 cells co-expressing Gli-dependent reporter gene assessed as inhibition of Shh signaling at 2 uM by dual luciferase reporter gene assay; format: functional, cell-based; conditions: Shh Light II
Protein smoothened [2] = biological target: T1, Protein smoothened; experiment: Antagonist activity at smoothened (unknown origin) expressed in mouse Shh Light2 cells co-expressing Gli-dependent reporter gene assessed as inhibition of Hh signaling by dual luciferase reporter gene assay; format: functional, cell-based, Shh Light II
Protein smoothened [3] = biological target: T1, Protein smoothened; experiment: Displacement of BODIPY-cyclopamine from human SMO cyclopamine-binding site expressed in HEK293 cells at 50 to 200 nM after 4 hrs by Hoechst 33342 staining-based assay; format: cell-based
Protein smoothened [4] = biological target: T1, Protein smoothened; experiment: Antagonist activity at smoothened (unknown origin) expressed in mouse Shh Light2 cells co-expressing Gli-dependent reporter gene assessed as inhibition of Shh signaling at 0.5 uM by dual luciferase reporter gene assay; format: functional, cell-based; conditions: Shh Light II
[5] = Inhibition of hedgehog signaling in mouse MSC cells assessed as down regulation of alkaline phosphatase at 20 to 80 uM; format: cell-based
Daoy = experiment: Antiproliferative activity against human DaOY cells assessed as growth inhibition at 10 uM after 48 hrs by MTT assay; format: functional, cell-based
[6] = Inhibition of Hedgehog signaling in mouse NIH/3T3 cells assessed as down regulation of mPTCH1 mRNA expression at 10 uM; format: cell-based; conditions: NIH3T3
Danio rerio = organism: Danio rerio; experiment: Antagonist activity at smoothened in zebrafish embryo assessed as reduction in Gli-dependent RFP expression compound treated at 20 to 80 uM at 2 hrs post fertilization measured 36 hrs post fertilization
HCT-116 = experiment: Antiproliferative activity against human HCT116 cells assessed as growth inhibition at 10 uM after 48 hrs by MTT assay; format: functional, cell-based
SW1353 = experiment: Antiproliferative activity against human SW1353 cells assessed as growth inhibition at 10 uM after 48 hrs by MTT assay; format: functional, cell-based
A549 = experiment: Antiproliferative activity against human A549 cells assessed as growth inhibition at 10 uM after 48 hrs by MTT assay; format: functional, cell-based
Protein smoothened [7] = biological target: T1, Protein smoothened; experiment: Displacement of BODIPY-cyclopamine from human SMO cyclopamine-binding site expressed in HEK293 cells at 10 to 100 nM after 4 hrs by Hoechst 33342 staining-based assay; format: cell-based

T1 sequence (Q99835 whole entry): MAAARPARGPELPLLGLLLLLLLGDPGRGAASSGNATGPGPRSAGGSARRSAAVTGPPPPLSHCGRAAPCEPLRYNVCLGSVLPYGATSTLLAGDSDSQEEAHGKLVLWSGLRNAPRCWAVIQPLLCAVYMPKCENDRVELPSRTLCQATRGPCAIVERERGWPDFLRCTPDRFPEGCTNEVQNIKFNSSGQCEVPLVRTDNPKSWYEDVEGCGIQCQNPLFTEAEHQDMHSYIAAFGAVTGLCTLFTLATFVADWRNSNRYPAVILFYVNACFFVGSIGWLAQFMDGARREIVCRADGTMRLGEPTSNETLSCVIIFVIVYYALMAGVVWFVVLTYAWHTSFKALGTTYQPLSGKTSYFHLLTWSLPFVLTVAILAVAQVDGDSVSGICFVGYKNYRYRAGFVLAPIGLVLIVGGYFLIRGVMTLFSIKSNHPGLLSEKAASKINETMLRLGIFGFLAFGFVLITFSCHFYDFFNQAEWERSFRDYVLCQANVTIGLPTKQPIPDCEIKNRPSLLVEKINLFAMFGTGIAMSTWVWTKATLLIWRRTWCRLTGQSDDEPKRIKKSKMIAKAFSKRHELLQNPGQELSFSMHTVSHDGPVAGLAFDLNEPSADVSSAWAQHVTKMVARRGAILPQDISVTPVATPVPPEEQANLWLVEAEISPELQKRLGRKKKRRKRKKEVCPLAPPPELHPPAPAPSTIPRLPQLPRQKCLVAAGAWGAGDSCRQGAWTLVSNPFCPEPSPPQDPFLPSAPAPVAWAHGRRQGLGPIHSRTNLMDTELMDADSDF

inhibition (Protein smoothened [1]): 46.6%
Compound: CS(=O)(=O)c1ccc(C(=O)Nc2ccc(Cl)c(C(=O)Nc3cc(Cl)cc(Cl)c3)c2)c(Cl)c1

inhibition (Protein smoothened [1]): 70.4%
Compound: CCOc1ccc(NC(=O)c2cc(NC(=O)c3ccc(S(C)(=O)=O)cc3Cl)ccc2Cl)cc1

inhibition (Protein smoothened [4]): inactive | inhibition (Protein smoothened [1]): 73.8%
Compound: COc1ccc(NC(=O)Nc2cc(NC(=O)c3ccc(S(C)(=O)=O)cc3Cl)ccc2Cl)cc1

inhibition (Protein smoothened [4]): inactive | inhibition (Protein smoothened [1]): 66.1%
Compound: CCOc1ccc(NC(=O)Nc2cc(NC(=O)c3ccc(S(C)(=O)=O)cc3Cl)ccc2Cl)cc1

inhibition (Protein smoothened [1]): 30.5%
Compound: CS(=O)(=O)c1ccc(C(=O)Nc2ccc(Cl)c(NC(=O)c3ccc(Cl)cn3)c2)c(Cl)c1

inhibition (Protein smoothened [1]): 51.4%
Compound: CS(=O)(=O)c1ccc(C(=O)Nc2ccc(Cl)c(NC(=O)c3ccc(Cl)s3)c2)c(Cl)c1

inhibition (Protein smoothened [1]): 53.2%
Compound: CS(=O)(=O)c1ccc(C(=O)Nc2ccc(Cl)c(NC(=O)c3ccccn3)c2)c(Cl)c1

inhibition (Protein smoothened [1]): 3.6%
Compound: COc1cc(OC)cc(C(=O)Nc2cc(NC(=O)c3ccc(S(C)(=O)=O)cc3Cl)ccc2Cl)c1

inhibition (Protein smoothened [1]): 56.8%
Compound: Cc1cc(C)cc(NC(=O)c2cc(NC(=O)c3ccc(S(C)(=O)=O)cc3Cl)ccc2Cl)c1

inhibition (Danio rerio): Active
Compound: CS(=O)(=O)c1ccc(C(=O)Nc2ccc(Cl)c(-c3ccccn3)c2)c(Cl)c1
inhibition [5]: Active | growth inhibition (GI) (Daoy): Active | inhibition [6]: Active | growth inhibition (GI) (HCT-116): Active | growth inhibition (GI) (SW1353): Active | growth inhibition (GI) (A549): Active

inhibition (Protein smoothened [1]): 28.4%
Compound: CS(=O)(=O)c1ccc(C(=O)Nc2ccc(Cl)c(NC(=O)c3cccc(C(F)(F)F)c3)c2)c(Cl)c1

inhibition (Danio rerio): Active | IC50 (Protein smoothened [2]): 40 nM | inhibition (Protein smoothened [1]): 72.2% | Activity (Protein smoothened [7]): Active
Compound: CS(=O)(=O)c1ccc(C(=O)Nc2ccc(Cl)c(C(=O)Nc3cccc(O)c3)c2)c(Cl)c1
inhibition [5]: Active | growth inhibition (GI) (Daoy): Active | inhibition [6]: Active | growth inhibition (GI) (HCT-116): Active | growth inhibition (GI) (SW1353): Active | growth inhibition (GI) (A549): Active

Continued, compound first:

Compound: Cc1cccc(NC(=O)c2cc(NC(=O)c3ccc(S(C)(=O)=O)cc3Cl)ccc2Cl)c1C
IC50 (Protein smoothened [2]): 100 nM | Activity (Protein smoothened [3]): Active | inhibition (Protein smoothened [1]): 76.3%

Compound: CS(=O)(=O)c1ccc(C(=O)Nc2ccc(Cl)c(C(=O)Nc3ccc(Cl)cc3Cl)c2)c(Cl)c1
inhibition (Protein smoothened [1]): 0%

Compound: COc1ccc(NC(=O)c2cc(NC(=O)c3ccc(S(C)(=O)=O)cc3Cl)ccc2Cl)cc1
inhibition (Protein smoothened [1]): 69.8%

Compound: CS(=O)(=O)c1ccc(C(=O)Nc2ccc(Cl)c(C(=O)Nc3cccnc3)c2)c(Cl)c1
inhibition (Protein smoothened [1]): 72.9%

Compound: Cc1ccc(NC(=O)c2cc(NC(=O)c3ccc(S(C)(=O)=O)cc3Cl)ccc2Cl)cc1
inhibition (Protein smoothened [1]): 67.5%

Compound: CCc1ccccc1NC(=O)c1cc(NC(=O)c2ccc(S(C)(=O)=O)cc2Cl)ccc1Cl
inhibition (Protein smoothened [1]): 65.9%

Compound: CS(=O)(=O)c1ccc(C(=O)Nc2ccc(Cl)c(NC(=O)Nc3ccc(Br)cc3F)c2)c(Cl)c1
inhibition (Protein smoothened [4]): inactive | inhibition (Protein smoothened [1]): 55.4%

Compound: Cc1ccccc1NC(=O)c1cc(NC(=O)c2ccc(S(C)(=O)=O)cc2Cl)ccc1Cl
inhibition (Protein smoothened [1]): 73%

Compound: CS(=O)(=O)c1ccc(C(=O)Nc2ccc(Cl)c(NC(=O)Nc3ccc(Cl)cc3)c2)c(Cl)c1
inhibition (Protein smoothened [4]): inactive | inhibition (Protein smoothened [1]): 0%

Compound: CS(=O)(=O)c1ccc(C(=O)Nc2ccc(Cl)c(NC(=O)Nc3ccc(C(F)(F)F)cc3Cl)c2)c(Cl)c1
IC50 (Protein smoothened [2]): 300 nM
